Earlier results, collected in publication PMC9510668 (Frontiers in Pharmacology, 2022).
Where two headings read alike, the source gives them in different places.

Tests used:
[1] = cited from earlier work
CYP3D6 = details: ref Food and Drug Administration, 2009; Yamada et al., 2020; cited from earlier work
[2] = cited from earlier work; remark: listed apart in the source
CYP3A4 = details: 2020, cited from earlier work
[3] = 50 mg OD for 21 consecutive days, Day 1, ref Hurwitz et al., 2009
[4] = 50 mg OD for 21 consecutive days, Day 22, ref Hurwitz et al., 2009
[5] = 100 mg OD for 21 consecutive days, Day 1, ref Hurwitz et al., 2009
[6] = 100 mg OD for 21 consecutive days, Day 22, ref Hurwitz et al., 2009
[7] = 200 mg OD for 21 consecutive days, Day 1, ref Hurwitz et al., 2009
[8] = 200 mg OD for 21 consecutive days, Day 22, ref Hurwitz et al., 2009
[9] = 300 mg twice daily for 21 consecutive days, Day 1, ref Hurwitz et al., 2009
[10] = 300 mg twice daily for 21 consecutive days, Day 22, ref Hurwitz et al., 2009
[11] = 400 mg OD for 21 consecutive days, Day 1, ref Hurwitz et al., 2009
[12] = 400 mg OD for 21 consecutive days, Day 22, ref Hurwitz et al., 2009
[13] = 400 mg oral suspension, ref Heath et al., 2012
[14] = 400 mg tablet, arithmetic mean (range), ref Deng et al., 2013
[15] = 400 mg twice daily for 21 consecutive days, Day 1, ref Hurwitz et al., 2009
[16] = 400 mg twice daily for 21 consecutive days, Day 22, ref Hurwitz et al., 2009
[17] = 400 mg whole tablet, ref Heath et al., 2012
[18] = 600 mg OD for 21 consecutive days, Day 1, ref Hurwitz et al., 2009
[19] = 600 mg OD for 21 consecutive days, Day 22, ref Hurwitz et al., 2009
[20] = 800 mg OD for 21 consecutive days, Day 1, ref Hurwitz et al., 2009
[21] = 800 mg OD for 21 consecutive days, Day 22, ref Hurwitz et al., 2009
[22] = 1000 mg OD for 21 consecutive days, Day 1, ref Hurwitz et al., 2009
[23] = 1000 mg OD for 21 consecutive days, Day 22, ref Hurwitz et al., 2009
[24] = 1400 mg OD for 21 consecutive days, Day 1, ref Hurwitz et al., 2009
[25] = 1400 mg OD for 21 consecutive days, Day 22, ref Hurwitz et al., 2009
[26] = 2000 mg OD for 21 consecutive days, Day 1, ref Hurwitz et al., 2009
[27] = 2000 mg OD for 21 consecutive days, Day 22, ref Hurwitz et al., 2009

Cc1ccc(Nc2nccc(N(C)c3ccc4c(C)n(C)nc4c3)n2)cc1S(N)(=O)=O [PAZ, pazopanib]
Increase in AUC of PAZ ([1]; co-administration with ketoconazole, ref Van Leeuwen et al., 2014): approximately 66% | Decrease in AUC of PAZ ([1]; combined with carbamazepine, ref Van Leeuwen et al., 2014): 30% | Reduction of oral bioavailability ([1]; concomitant drugs that increase gastric pH, ref Budha et al., 2012): approximately 39% | Increase in AUC of PAZ ([1]; with lapatinib, ref Van Leeuwen et al., 2014): 59% | Inhibitor of CYP3D6 (CYP3D6): weak inhibitor | AUC0-24, Observation [2, 3]: 51.8 µg·h/mL | Cmax, Observation [2, 3]: 3.3 µg/mL | Ctrough, Observation [2, 3]: 1500 ng/mL | Tmax, Observation [2, 3]: 3.0 h | AUC504-528, Observation [2, 4]: 157.7 µg·h/mL | Cmax, Observation [2, 4]: 8.4 µg/mL | Ctrough, Observation [2, 4]: 5100 ng/mL | Tmax, Observation [2, 4]: 3.0 h | AUC0-24, Observation [2, 5]: 96.9 µg·h/mL | Cmax, Observation [2, 5]: 6.5 µg/mL | Ctrough, Observation [2, 5]: 2800 ng/mL | Tmax, Observation [2, 5]: 4.0 h | AUC504-528, Observation [2, 6]: 160.7 µg·h/mL | Cmax, Observation [2, 6]: 11.0 µg/mL | Ctrough, Observation [2, 6]: 4900 ng/mL | Tmax, Observation [2, 6]: 8.0 h | AUC0-24, Observation [2, 7]: 104.5 µg·h/mL | Cmax, Observation [2, 7]: 7.5 µg/mL | Ctrough, Observation [2, 7]: 2900 ng/mL | Tmax, Observation [2, 7]: 3.0 h | AUC504-528, Observation [2, 8]: 384.8 µg·h/mL | Cmax, Observation [2, 8]: 23.7 µg/mL | Ctrough, Observation [2, 8]: 12400 ng/mL | Tmax, Observation [2, 8]: 2.0 h | AUC0-24, Observation [2, 9]: 120.1 µg·h/mL | Cmax, Observation [2, 9]: 8.4 µg/mL | Ctrough, Observation [2, 9]: 4100 ng/mL | Tmax, Observation [2, 9]: 4.0 h | Cmax, Observation [2, 10]: 36.7 µg/mL | Ctrough, Observation [2, 10]: 29500 ng/mL | Tmax, Observation [2, 10]: 4.0 h | AUC0-24, Observation [2, 11]: 142.8 µg·h/mL | Cmax, Observation [2, 11]: 10.3 µg/mL | Ctrough, Observation [2, 11]: 3900 ng/mL | Tmax, Observation [2, 11]: 4.0 h | AUC504-528, Observation [2, 12]: 447.1 µg·h/mL | Cmax, Observation [2, 12]: 21.8 µg/mL | Ctrough, Observation [2, 12]: 10400 ng/mL | Tmax, Observation [2, 12]: 3.0 h | AUC0-72, Observation [2, 13]: 471.1 (NC) μg h mL^−1 | C24, Observation [2, 13]: 7.8 (NC) μg mL^−1 | Cmax, Observation [2, 13]: 12.7 (NC) μg mL^−1 | Tmax, Observation [2, 13]: 2.7 (NC) h | AUC0-72, Observation [2, 14]: 335.2 (259–582) μg h mL^−1 | Cmax, Observation [2, 14]: 10.8 (7.3–12.5) μg mL^−1 | Tmax, Observation [2, 14]: 8.0 (4.0–10.0) h | C24, Observation ([2]; 400 mg tablet, ref Deng et al., 2013): 5.8 (NC) μg mL^−1 | AUC0-24, Observation [2, 15]: 365.4 µg·h/mL | Cmax, Observation [2, 15]: 6.5 µg/mL | Ctrough, Observation [2, 15]: 3300 ng/mL | Tmax, Observation [2, 15]: 3.0 h | Cmax, Observation [2, 16]: 36.1 µg/mL | Ctrough, Observation [2, 16]: 28100 ng/mL | Tmax, Observation [2, 16]: 3.1 h | AUC0-72, Observation [2, 17]: 410.3 (NC) μg h mL^−1 | C24, Observation [2, 17]: 7.6 (NC) μg mL^−1 | Cmax, Observation [2, 17]: 12.4 (NC) μg mL^−1 | Tmax, Observation [2, 17]: 3.8 h | AUC0-24, Observation [2, 18]: 157.6 µg·h/mL | Cmax, Observation [2, 18]: 11.2 µg/mL | Ctrough, Observation [2, 18]: 4700 ng/mL | Tmax, Observation [2, 18]: 3.0 h | AUC504-528, Observation [2, 19]: 333.7 µg·h/mL | Cmax, Observation [2, 19]: 18.2 µg/mL | Ctrough, Observation [2, 19]: 11000 ng/mL | Tmax, Observation [2, 19]: 6.0 h | AUC0-24, Observation [2, 20]: 275.1 µg·h/mL | Cmax, Observation [2, 20]: 19.4 µg/mL | Ctrough, Observation [2, 20]: 9400 ng/mL | Tmax, Observation [2, 20]: 3.5 h | AUC504-528, Observation [2, 21]: 743.3 µg·h/mL | Cmax, Observation [2, 21]: 45.1 µg/mL | Ctrough, Observation [2, 21]: 24000 ng/mL | Tmax, Observation [2, 21]: 2.0 h | AUC0-24, Observation [2, 22]: 400.0 µg·h/mL | Cmax, Observation [2, 22]: 36.1 µg/mL | Ctrough, Observation [2, 22]: 12200 ng/mL | Tmax, Observation [2, 22]: 2.0 h | AUC504-528, Observation [2, 23]: 796.1 µg·h/mL | Cmax, Observation [2, 23]: 53.2 µg/mL | Ctrough, Observation [2, 23]: 28800 ng/mL | Tmax, Observation [2, 23]: 4.5 h | AUC0-24, Observation [2, 24]: 291.6 µg·h/mL | Cmax, Observation [2, 24]: 20.8 µg/mL | Ctrough, Observation [2, 24]: 8200 ng/mL | Tmax, Observation [2, 24]: 3.0 h | AUC504-528, Observation [2, 25]: 536.2 µg·h/mL | Cmax, Observation [2, 25]: 32.7 µg/mL | Ctrough, Observation [2, 25]: 16600 ng/mL | Tmax, Observation [2, 25]: 2.0 h | AUC0-24, Observation [2, 26]: 681.2 µg·h/mL | Cmax, Observation [2, 26]: 44.5 µg/mL | Ctrough, Observation [2, 26]: 12200 ng/mL | Tmax, Observation [2, 26]: 4.0 h | AUC504-528, Observation [2, 27]: 860.3 µg·h/mL | Cmax, Observation [2, 27]: 52.7 µg/mL | Ctrough, Observation [2, 27]: 28800 ng/mL | Tmax, Observation [2, 27]: 3.0 h | Slope of AUC vs dose, clinically determined value ([2]; ref Food and Drug Administration, 2009): 0.46 | Inducer of CYP3A4 (CYP3A4; ref Food and Drug Administration, 2009, Yamada et al.): moderate inducer | Emax CYP3A4, maximum inductive effect (CYP3A4; ref Yamada et al.): 2.43 µM
